Patent US20070202116A1, “Treatment of micro-organism infection” (priority 2001, published 2007)

Columns and labels:
EMRSA strains = assay: MIC of vancomycin or flucloxacillin with and without Aurograb (Table 3a); format: cell-based, S. aureus; settings: Staphylococcus aureus; all EMRSA strains; read-out: MIC of flucloxacillin
Description: Strains of MRSA were grown overnight in nutrient broth and diluted to give an inoculum of 1×10^3 cells per mL. […] Cultures were incubated for a further 2 days. The minimum growth-inhibitory concentration (MIC) is defined as the […] concentration of antibiotic at which no bacterial growth occurs and is determined by spectrophotometric evaluation of the lack of turbidity (growth) in culture. MICs were determined in the presence of exogenous Aurograb or in the presence of Aurograb formulation buffer (negative control).
The experiments were also performed using flucloxacillin instead of vancomycin to investigate how the efficacy of penicillin-type […] was affected by Aurograb.

human blood = assay: Blood compatibility study (haemolysis)
Description: This study was carried out by Biochemical Pharmacology department at Inveresk Research, Scotland, in order to assess the suitability of Aurograb for intravenous administration.
Blood samples were taken from healthy human volunteers, transferred to tubes containing Aurograb, Aurograb vehicle, saponin or saline and incubated at 37° C. for 1 hour. After centrifugation, the amount of haemoglobin in the supernatant was then assessed to determine haemolysis.

| Compound | MIC (EMRSA strains) | Haemolysis classification (ASTM F756-93) (human blood) |
| --- | --- | --- |
| Cc1onc(-c2c(F)cccc2Cl)c1C(=O)N[C@@H]1C(=O)N2[C@@H]1SC(C)(C)[C@@H]2C(=O)O [flucloxacillin] | > 256 µg/mL |  |
| saponin |  | severely haemolytic |
